Laboratory results from PubChem BioAssay AID624167 (Sanford-Burnham Center for Chemical Genomics, 2012).
The source made the active and inactive calls.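 The calls were made as follows: active = mean IC50 for reducing PEG3 promoter reporter signal at or below a set limit, with IC50 above the limit in both counter screens; inactive = the rest, including counter screen hits.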

What was measured:
Assay in all cases: inhibition of PEG-3 promoter-driven reporter – cell-based, HeLa, luciferase, CREF/GAPDH counter-screen panel, dose response (AID 624167)
PEG-3 [1] = conditions: HeLa PEG-Prom luciferase reporter, overnight, CREF/GAPDH counter-screens
PEG-3 [2] = molecular target: PEG-3 (UniProt Q6IN02); conditions: HeLa PEG-Prom luciferase reporter, overnight, CREF/GAPDH counter-screens, mean of runs
Rat fibroblasts (CREF) = conditions: CREF/GAPDH counter-screens
[3] = run 1, dose range 1, individual replicate IC50 per panel
[4] = run 2, dose range 1, individual replicate IC50 per panel

PEG-3 (UniProt Q6IN02), sequence (Q6IN02 whole entry, looked up): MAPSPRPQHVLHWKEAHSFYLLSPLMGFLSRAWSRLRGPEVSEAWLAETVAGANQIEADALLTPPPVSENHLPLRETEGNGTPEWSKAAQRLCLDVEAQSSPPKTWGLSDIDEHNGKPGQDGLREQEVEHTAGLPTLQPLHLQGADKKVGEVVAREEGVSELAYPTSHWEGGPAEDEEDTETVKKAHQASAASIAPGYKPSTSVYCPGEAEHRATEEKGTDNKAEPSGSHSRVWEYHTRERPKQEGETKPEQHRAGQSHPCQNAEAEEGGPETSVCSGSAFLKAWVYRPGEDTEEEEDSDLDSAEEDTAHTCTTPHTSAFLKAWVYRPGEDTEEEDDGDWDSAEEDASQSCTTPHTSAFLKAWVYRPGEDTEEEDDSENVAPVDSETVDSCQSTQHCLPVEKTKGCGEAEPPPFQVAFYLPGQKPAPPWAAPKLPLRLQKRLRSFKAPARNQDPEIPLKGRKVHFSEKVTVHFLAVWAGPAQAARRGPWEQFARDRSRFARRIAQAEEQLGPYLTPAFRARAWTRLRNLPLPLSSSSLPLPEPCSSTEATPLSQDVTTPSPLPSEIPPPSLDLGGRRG

Compound	IC50 (PEG-3 [2])	IC50 (PEG-3 [1]; [3])	IC50 (PEG-3 [1]; [4])	IC50 (Rat fibroblasts (CREF); mean of runs)	IC50 (Rat fibroblasts (CREF); [3])	IC50 (Rat fibroblasts (CREF); [4])
Cc1ccccc1-c1nc(-c2ccccn2)no1	3.9 µM	2.98 µM	4.81 µM	1.33 µM	1.08 µM	1.57 µM
CCC(=O)NC(c1cccs1)c1cc(Cl)c2cccnc2c1O (configuration not stated)	4.68 µM	4.97 µM	4.39 µM	0.842 µM	< 100 µM	0.842 µM
COc1ccc(-c2cc3nc(C)n(N)c(=O)c3s2)cc1	0.473 µM	0.657 µM	0.288 µM	1.09 µM	1.01 µM	1.16 µM
O=C(COc1ccc(Cl)cc1Cl)Nc1ccccn1	0.93 µM	1.27 µM	0.594 µM	0.904 µM	0.795 µM	1.01 µM
O=C(Cn1ncc(Cl)c(Cl)c1=O)N1CCc2ccccc21	8.73 µM	10.1 µM	7.38 µM	14.3 µM	18.5 µM	10 µM
Cc1ccc(C(=O)Nc2ncc([N+](=O)[O-])s2)cc1	2.73 µM	2.01 µM	3.45 µM	8.85 µM	5.94 µM	11.8 µM
CC(C)CC(=NNC(=O)c1ccncc1)c1cc(Cl)ccc1O	3.41 µM	3.35 µM	3.46 µM	10.3 µM	8.21 µM	12.3 µM
Cc1cc(C(=O)COC(=O)c2ccccc2O)c(C)n1Cc1cccs1	3.32 µM	1.79 µM	4.86 µM	1.36 µM	0.812 µM	1.9 µM
Cc1c(C)c2ccc(OCC(=O)Nc3ccccn3)c(C)c2oc1=O	1.2 µM	1.64 µM	0.767 µM	1.65 µM	1.44 µM	1.86 µM
COc1ccc(CN2CCN(C(=O)c3cc(-c4cccnc4)nc4ccc(Cl)cc34)CC2)c(OC)c1OC	inactive	52.4 µM	16.4 µM	–	–	–
Cc1c(OCC(=O)NC2CC(C)(C)NC(C)(C)C2)ccc2c1oc(=O)c1ccccc12	inactive	43.5 µM	> 100 µM	–	–	–
COc1ccc(C(O)(CCC(C)C)C(CN2CCOCC2)c2ccccc2)cc1 (configuration not stated)	inactive	30.5 µM	30.2 µM	–	–	–
Cc1ccc(NC(=O)Nc2ccnc(-c3cccnc3)n2)cc1	> 100 µM (inactive)	> 100 µM	> 100 µM	–	–	–

Further lines, with some results ahead:

IC50 (PEG-3 [2])	Compound	IC50 (PEG-3 [1]; [3])	IC50 (PEG-3 [1]; [4])	IC50 (Rat fibroblasts (CREF); mean of runs)	IC50 (Rat fibroblasts (CREF); [3])	IC50 (Rat fibroblasts (CREF); [4])
9.14 µM	COc1cccc2nc3c(C(=O)NCCN(C)C)cccc3cc12	11.2 µM	7.03 µM	8.72 µM	12 µM	5.44 µM
0.665 µM	Cc1ccc(C(=O)Nc2cc3ccccc3oc2=O)cc1	0.327 µM	1 µM	1.66 µM	0.409 µM	2.9 µM
1.83 µM	O=C(O)c1cccc(COc2ccccc2Cl)c1	0.679 µM	2.97 µM	20.2 µM	38.8 µM	1.55 µM
2.46 µM	COC(=O)c1c(N)sc(C(=O)NCCc2ccccc2)c1C	2.22 µM	2.69 µM	3.88 µM	4.38 µM	3.38 µM
3.29 µM	CN(C)c1ccc(/C=C/c2ccc3ccccc3n2)cc1	2.09 µM	4.48 µM	2.69 µM	2.15 µM	3.22 µM
13.9 µM	CN(C)CCNC(=O)/C(=C/c1ccc(-c2ccc(Cl)cc2)o1)NC(=O)c1ccccc1	18.1 µM	9.62 µM	–	–	–
12.9 µM	O=S(=O)(c1cccc(F)c1)N1CCN(c2nc(-c3cccnc3)nc3ccccc23)CC1	10.1 µM	15.8 µM	–	–	–
inactive	COC(=O)c1ccc(CNC(=O)Cn2cnc3c(NCc4ccccc4)ncnc32)cc1	29.6 µM	15.5 µM	–	–	–
11.1 µM	CCN(CC)c1ccc2nc3ccc(N)cc3[n+](-c3ccccc3)c2c1	9.95 µM	12.2 µM	–	–	–
17.2 µM	Cc1ccc(C)c(OCC(O)CN2CCC(CN3C(=O)c4cccc5cccc(c45)C3=O)CC2)c1 (configuration not stated)	18.4 µM	15.9 µM	–	–	–
16.6 µM	CCOc1cccc2sc(N(CCCN(C)C)C(=O)c3ccc(S(=O)(=O)N(C)Cc4ccccc4)cc3)nc12	18.6 µM	14.7 µM	–	–	–
15.9 µM	COC(=O)C1=C(C)N(Cc2ccccc2)C(=NCc2cccc(Cl)c2)N[C@H]1c1ccccc1	19.1 µM	12.7 µM	–	–	–
inactive	COc1ccc(OC)c(-c2cc(C(=O)N3CCN(c4ncccn4)CC3)c3ccccc3n2)c1	35 µM	> 100 µM	–	–	–
inactive	CC(=O)Nc1cccc(NC(=O)c2cc(-c3cccnc3)nc3ccc(Cl)cc23)c1	50.2 µM	59.2 µM	–	–	–
> 100 µM (inactive)	CCN1C(=O)C(=Cc2cccc(OC)c2Oc2ccc([N+](=O)[O-])cc2[N+](=O)[O-])SC1=S	> 100 µM	> 100 µM	–	–	–
inactive	COc1ccc(-c2cc(C(=O)N(C)Cc3ccc(OC)c(OC)c3OC)c3ccccc3n2)cc1OC	13.4 µM	30.9 µM	–	–	–
inactive	Cc1cccc(CN2C(=O)/C(=C\c3ccc(C(=O)NCCN4CCOCC4)cc3)Sc3ccccc32)c1	18.2 µM	22.1 µM	–	–	–
